The record followed here is ChEMBL document CHEMBL4118053, “Antimicrobial Spirotetronate Metabolites from Marine-Derived Micromonospora harpali SCSIO GJ089” (2017).

Values after ≈ are worked out from the molar mass of the structure shown.

Format in all cases: functional
In test [1] the test system is Bacillus subtilis. The experiment in a line: Antibacterial activity against Bacillus subtilis BS01 by CLSI method.
Test [2] deals with Bacillus thuringiensis. The experiment in a line: Antibacterial activity against Bacillus thuringiensis BT01 by CLSI method.
The subject of test [3] is Staphylococcus aureus. The test can be described thus: Antibacterial activity against methicillin-resistant Staphylococcus aureus isolate shhs-A1 by CLSI method.
In test [4] the test system is Staphylococcus aureus. The test can be described thus: Antibacterial activity against Staphylococcus aureus ATCC 29213 by CLSI method.
Test [5] deals with Enterococcus faecalis. The test can be described thus: Antibacterial activity against Enterococcus faecalis ATCC 29212 by CLSI method.

Broadly, the MIC is the lowest concentration that inhibits growth of the organism. A higher MIC goes with weaker potency. Consider `COC(=O)N[C@H]1[C@@H](C)O[C@@H](O[C@H]2C/C=C(\C)[C@@H]3C=C[C@@H]4[C@@H](O[C@H]5C[C@@H](O[C@H]6CC[C@@H](O[C@@H]7C[C@@H](O)[C@@H](O[C@H]8CC[C@@H](O)[C@H](C)O8)[C@H](C)O7)[C@H](C)O6)[C@@H](OC(C)=O)[C@H](C)O5)[C@@H](C)C[C@H](C)[C@H]4[C@]3(C)C(=O)C3=C(O)[C@@]4(CC(/C=C/C(C)=O)=C[C@H](O)[C@H]4/C=C/2C)OC3=O)C[C@]1(C)N`, for which the MIC is 2 µg/mL (≈ 1.51 µM) in test [1]; 1 µg/mL (≈ 0.756 µM) in test [2]; > 128 µg/mL in test [3]; > 128 µg/mL in test [4]; > 128 µg/mL in test [5].

Turning to `C/C1=C\[C@@H]2C=C[C@H](C)C[C@]23OC(=O)C(=C3O)C(=O)[C@@]2(C)[C@H]3[C@H](C=C[C@H]2/C(C)=C/C[C@@H]1O)[C@@H](O)[C@](C)(O)C[C@@H]3C`, the MIC in test [1], in test [2], in test [3], in test [4] and in test [5] was > 128 µg/mL each time.

With `COC(=O)N[C@H]1[C@@H](C)O[C@@H](O[C@H]2C/C=C(\C)[C@@H]3C=C[C@@H]4[C@@H](O[C@H]5C[C@@H](O[C@H]6CC[C@@H](O[C@@H]7C[C@@H](O)[C@@H](O)[C@H](C)O7)[C@H](C)O6)[C@@H](OC(C)=O)[C@H](C)O5)[C@@H](C)C[C@H](C)[C@H]4[C@]3(C)C(=O)C3=C(O)[C@@]4(CC(C=O)=C[C@H](O)[C@H]4/C=C/2C)OC3=O)C[C@]1(C)[N+](=O)[O-]`, the MIC in test [1] was 0.063 µg/mL (≈ 0.0525 µM); in test [2], 0.063 µg/mL (≈ 0.0525 µM); in test [3], 32 µg/mL (≈ 26.7 µM); in test [4] it was 32 µg/mL (≈ 26.7 µM); in test [5], 64 µg/mL (≈ 53.4 µM).

Regarding `COC(=O)N[C@H]1[C@@H](C)O[C@@H](O[C@H]2C/C=C(\C)[C@@H]3C=C[C@@H]4[C@@H](O[C@H]5C[C@@H](O[C@H]6C[C@@H](O)[C@@H](O[C@@H]7C[C@@H](O)[C@@H](O)[C@H](C)O7)[C@H](C)O6)[C@@H](OC(C)=O)[C@H](C)O5)[C@@H](C)C[C@H](C)[C@H]4[C@]3(C)C(=O)C3=C(O)[C@@]4(CC(/C=C/C(C)=O)=C[C@H](O)[C@H]4/C=C/2C)OC3=O)C[C@]1(C)N`, the MIC in test [1] is 8 µg/mL (≈ 6.53 µM); in test [2] it was 4 µg/mL (≈ 3.26 µM); in test [3], > 128 µg/mL; in test [4] it was > 128 µg/mL; in test [5], > 128 µg/mL.

As for `COC(=O)N[C@H]1[C@@H](C)O[C@@H](O[C@H]2C/C=C(\C)[C@@H]3C=C[C@@H]4[C@@H](O[C@H]5C[C@@H](O[C@H]6C[C@@H](O)[C@@H](O[C@@H]7C[C@@H](O)[C@@H](O)[C@H](C)O7)[C@H](C)O6)[C@@H](OC(C)=O)[C@H](C)O5)[C@@H](C)C[C@H](C)[C@H]4[C@]3(C)C(=O)C3=C(O)[C@@]4(CC(/C=C/C(C)=O)=C[C@H](O)[C@H]4/C=C/2C)OC3=O)C[C@]1(C)[N+](=O)[O-]`, the MIC was 0.5 µg/mL (≈ 0.398 µM) in test [1]; 0.25 µg/mL (≈ 0.199 µM) in test [2]; > 128 µg/mL in test [3]; > 128 µg/mL in test [4]; 128 µg/mL (≈ 102 µM) in test [5].

`COC(=O)N[C@H]1[C@@H](C)O[C@@H](O[C@H]2C/C=C(\C)[C@@H]3C=C[C@@H]4[C@@H](O[C@H]5C[C@@H](O[C@H]6CC[C@@H](O[C@@H]7C[C@@H](O)[C@@H](O[C@H]8CC[C@@H](O)[C@H](C)O8)[C@H](C)O7)[C@H](C)O6)[C@@H](OC(C)=O)[C@H](C)O5)[C@@H](C)C[C@H](C)[C@H]4[C@]3(C)C(=O)C3=C(O)[C@@]4(CC(/C=C/C(C)=O)=C[C@H](O)[C@H]4/C=C/2C)OC3=O)C[C@]1(C)[N+](=O)[O-]`: the MIC in test [1] is 0.03 µg/mL (≈ 0.0222 µM); in test [2] it was 0.016 µg/mL (≈ 0.0118 µM); in test [3] it was 32 µg/mL (≈ 23.6 µM); in test [4], 32 µg/mL (≈ 23.6 µM); in test [5], 64 µg/mL (≈ 47.3 µM).

As for `COC(=O)N[C@H]1[C@@H](C)O[C@@H](O[C@H]2C/C=C(\C)[C@@H]3C=C[C@@H]4[C@@H](O[C@H]5C[C@@H](O[C@H]6CC[C@@H](O[C@@H]7C[C@@H](O)[C@@H](O[C@H]8CC[C@@H](O)[C@H](C)O8)[C@H](C)O7)[C@H](C)O6)[C@@H](OC(C)=O)[C@H](C)O5)[C@@H](C)C[C@H](C)[C@H]4[C@]3(C)C(=O)C3=C(O)[C@@]4(CC(C=O)=C[C@H](O)[C@H]4/C=C/2C)OC3=O)C[C@]1(C)[N+](=O)[O-]`, the MIC in test [1] turned out to be 0.03 µg/mL (≈ 0.0228 µM); in test [2], 0.016 µg/mL (≈ 0.0122 µM); in test [3], 32 µg/mL (≈ 24.4 µM); in test [4] it was 32 µg/mL (≈ 24.4 µM); in test [5], 64 µg/mL (≈ 48.7 µM).

Turning to `COC(=O)N[C@H]1[C@@H](C)O[C@@H](O[C@H]2C/C=C(\C)[C@@H]3C=C[C@@H]4[C@@H](O[C@H]5C[C@@H](O[C@H]6CC[C@@H](O[C@@H]7C[C@@H](O)[C@@H](O)[C@H](C)O7)[C@H](C)O6)[C@@H](OC(C)=O)[C@H](C)O5)[C@@H](C)C[C@H](C)[C@H]4[C@]3(C)C(=O)C3=C(O)[C@@]4(CC(/C=C/C(C)=O)=C[C@H](O)[C@H]4/C=C/2C)OC3=O)C[C@]1(C)N`, the MIC is 2 µg/mL (≈ 1.65 µM) in test [1]; 1 µg/mL (≈ 0.827 µM) in test [2]; > 128 µg/mL in test [3]; 128 µg/mL (≈ 106 µM) in test [4]; > 128 µg/mL in test [5].

Take `COC(=O)N[C@H]1[C@@H](C)O[C@@H](O[C@H]2C/C=C(\C)[C@@H]3C=C[C@@H]4[C@@H](O[C@H]5C[C@@H](O[C@H]6CC[C@@H](O[C@@H]7C[C@@H](O)[C@@H](O)[C@H](C)O7)[C@H](C)O6)[C@@H](OC(C)=O)[C@H](C)O5)[C@@H](C)C[C@H](C)[C@H]4[C@]3(C)C(=O)C3=C(O)[C@@]4(CC(/C=C/C(C)=O)=C[C@H](O)[C@H]4/C=C/2C)OC3=O)C[C@]1(C)[N+](=O)[O-]`: the MIC in test [1] is 0.13 µg/mL (≈ 0.105 µM); in test [2], 0.063 µg/mL (≈ 0.0508 µM); in test [3], 32 µg/mL (≈ 25.8 µM); in test [4], 32 µg/mL (≈ 25.8 µM); in test [5] it was 64 µg/mL (≈ 51.6 µM).

Turning to `C/C1=C\[C@@H]2C=C[C@H](C)C[C@]23OC(=O)C(=C3O)C(=O)[C@@]2(C)[C@H]3[C@H](C=C[C@H]2/C(C)=C/C[C@@H]1O)[C@@H](O)[C@@H](C)C[C@@H]3C`, the MIC in test [1] came out at 64 µg/mL (≈ 122 µM); in test [2], 64 µg/mL (≈ 122 µM); in test [3], 128 µg/mL (≈ 245 µM); in test [4] it was 128 µg/mL (≈ 245 µM); in test [5] it was 128 µg/mL (≈ 245 µM).

As for `COC(=O)N[C@H]1[C@@H](C)O[C@@H](O[C@H]2C/C=C(\C)[C@@H]3C=C[C@@H]4[C@@H](O[C@H]5C[C@@H](O[C@H]6CC[C@@H](O[C@@H]7C[C@@H](O)[C@@H](O[C@H]8CC[C@@H](O)[C@H](C)O8)[C@H](C)O7)[C@H](C)O6)[C@@H](OC(C)=O)[C@H](C)O5)[C@@H](C)C[C@H](C)[C@H]4[C@]3(C)C(=O)C3=C(O)[C@@]4(CC(C=O)=C[C@H](O)[C@H]4/C=C/2C)OC3=O)C[C@]1(C)N`, the MIC in test [1] was 2 µg/mL (≈ 1.56 µM); in test [2] it was 1 µg/mL (≈ 0.779 µM); in test [3], > 128 µg/mL; in test [4], > 128 µg/mL; in test [5], > 128 µg/mL.

On to `COC(=O)N[C@H]1[C@@H](C)O[C@@H](O[C@H]2C/C=C(\C)[C@@H]3C=C[C@@H]4[C@@H](O[C@H]5C[C@@H](O[C@H]6CC[C@@H](O[C@@H]7C[C@@H](O)[C@@H](O)[C@H](C)O7)[C@H](C)O6)[C@@H](OC(C)=O)[C@H](C)O5)[C@@H](C)C[C@H](C)[C@H]4[C@]3(C)C(=O)C3=C(O)[C@@]4(CC(C=O)=C[C@H](O)[C@H]4/C=C/2C)OC3=O)C[C@]1(C)N`, for which the minimal inhibitory concentration (MIC) in test [1] is 2 µg/mL (≈ 1.71 µM); in test [2], 1 µg/mL (≈ 0.855 µM); in test [3], > 128 µg/mL; in test [4], > 128 µg/mL; in test [5] it was > 128 µg/mL.

In the case of `CC1(C)S[C@@H]2[C@H](NC(=O)[C@H](N)c3ccccc3)C(=O)N2[C@H]1C(=O)O` [AMPICILLIN], the MIC in test [1] stood at 0.25 µg/mL (≈ 0.715 µM); in test [2] it was 32 µg/mL (≈ 91.6 µM); in test [3], 1 µg/mL (≈ 2.86 µM); in test [4], 2 µg/mL (≈ 5.72 µM); in test [5], 2 µg/mL (≈ 5.72 µM).

With `NC[C@H]1O[C@H](O[C@H]2[C@H](O)[C@@H](O[C@H]3O[C@H](CO)[C@@H](O)[C@H](N)[C@H]3O)[C@H](N)C[C@@H]2N)[C@H](O)[C@@H](O)[C@@H]1O` [KANAMYCIN], the MIC in test [1] was 8 µg/mL (≈ 16.5 µM); in test [2], 8 µg/mL (≈ 16.5 µM); in test [3], 64 µg/mL (≈ 132 µM); in test [4] it was 16 µg/mL (≈ 33 µM); in test [5], 32 µg/mL (≈ 66 µM).

For `CN[C@H](CC(C)C)C(=O)N[C@H]1C(=O)N[C@@H](CC(N)=O)C(=O)N[C@H]2C(=O)N[C@H]3C(=O)N[C@H](C(=O)N[C@H](C(=O)O)c4cc(O)cc(O)c4-c4cc3ccc4O)[C@H](O)c3ccc(c(Cl)c3)Oc3cc2cc(c3O[C@@H]2O[C@H](CO)[C@@H](O)[C@H](O)[C@H]2O[C@H]2C[C@](C)(N)[C@H](O)[C@H](C)O2)Oc2ccc(cc2Cl)[C@H]1O` [VANCOMYCIN], the minimal inhibitory concentration (MIC) in test [1] is 1 µg/mL (≈ 0.69 µM); in test [2] it was 2 µg/mL (≈ 1.38 µM).
